The test concerns the target T1, Kir3.1/3.2 channels (GIRK) (Homo sapiens, UniProt P48051+P48549).
T1 construct: expressed in transfected cells
T1 sequence (P48549 1-501): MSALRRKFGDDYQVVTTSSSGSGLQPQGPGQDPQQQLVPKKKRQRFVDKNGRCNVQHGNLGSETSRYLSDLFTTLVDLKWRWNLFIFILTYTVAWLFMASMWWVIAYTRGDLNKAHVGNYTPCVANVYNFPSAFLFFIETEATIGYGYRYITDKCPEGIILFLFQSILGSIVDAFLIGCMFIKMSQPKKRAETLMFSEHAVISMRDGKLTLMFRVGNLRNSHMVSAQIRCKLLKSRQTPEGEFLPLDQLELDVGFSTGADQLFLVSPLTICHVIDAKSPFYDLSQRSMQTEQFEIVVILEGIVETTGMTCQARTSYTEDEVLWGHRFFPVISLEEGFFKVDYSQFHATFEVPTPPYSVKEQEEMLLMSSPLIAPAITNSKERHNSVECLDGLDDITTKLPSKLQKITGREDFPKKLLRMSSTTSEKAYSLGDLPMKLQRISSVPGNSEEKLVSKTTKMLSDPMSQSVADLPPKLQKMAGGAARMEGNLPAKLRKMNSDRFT
T1 sequence (P48051 1-423): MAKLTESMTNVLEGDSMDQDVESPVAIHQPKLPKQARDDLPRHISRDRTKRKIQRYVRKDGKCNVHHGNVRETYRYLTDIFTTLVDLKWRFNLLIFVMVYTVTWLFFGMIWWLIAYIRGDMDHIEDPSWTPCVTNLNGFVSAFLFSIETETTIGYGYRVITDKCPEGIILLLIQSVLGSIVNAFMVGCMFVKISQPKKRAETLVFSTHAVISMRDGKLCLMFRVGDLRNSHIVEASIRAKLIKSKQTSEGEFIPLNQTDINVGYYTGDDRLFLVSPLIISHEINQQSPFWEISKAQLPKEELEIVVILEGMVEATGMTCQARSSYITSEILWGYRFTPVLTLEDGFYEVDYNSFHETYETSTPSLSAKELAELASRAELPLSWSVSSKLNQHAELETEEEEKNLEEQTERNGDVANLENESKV
As to the kind of experiment: block of basally-active K+ currents in GIRK cells not expressing GABABRs, high K+ Krebs. The class given is cell-based. On the procedure: HEK-293T cells were maintained in Dulbecco's modified Eagle's medium containing 10% (v/v) fetal calf serum (FCS), 100 U/ml penicillin-G, 100 μg/ml streptomycin in 95% air/5% CO2 at 37 °C. All cell culture reagents were acquired from ThermoFisher unless otherwise stated. Cells were plated on 22 mm glass coverslips (VWR, UK), coated with poly-L-lysine (Sigma) and transfected using a calcium phosphate method with cDNAs for eGFP, α, β, γ or δ, in a 1:1:1:1 ratio ([Hannan et al., 2020]) applied 1–2 h after cell plating. HEK-293 cells stably expressing Kir3.1/3.2 channels ([Leaney et al., 2000]) were grown in a selection media containing G418 (0.5 mg/ml) and Zeocin (0.4 mg/ml) and passaged, and plated, as for the HEK-293T cells above. These cells are referred to as GIRK cells throughout the text and were transiently transfected with cDNAs for eGFP, GABAB R1a and R2 in a 1:1:5 ratio applied 1–2 h after cell plating.
GABA-activated currents were recorded 24 h after transfection of HEK-293T or GIRK cells. Spontaneous inhibitory postsynaptic currents (sIPSCs) were recorded from cultured hippocampal neurons at 12–17 days in vitro (DIV). Cells were superfused with a saline solution containing (mM): 140 NaCl, 4.7 KCl, 2.52 CaCl2, 1.2 MgCl2, 11 glucose, and 5 HEPES; pH 7.4. sIPSCs from hippocampal culture neurons were recorded in the presence of 2 mM kynurenic acid to block excitatory neurotransmission. […] GABABR-activated K^+ currents in cultured neurons were recorded in the additional presence of 2 mM kynurenic acid and 20 μM picrotoxin.
Borosilicate glass electrodes (3–5 MΩ) were filled with a K^+-based internal solution for recording GIRK currents containing (mM): 120 KCl, 2 MgCl2, 11 EGTA, 30 KOH, 10 HEPES, 1 CaCl2, 1 GTP, 2 ATP, 14 creatine phosphate, pH 7.0. GABAAR currents and sIPSCs were recorded with a Cs-based internal solution containing (mM): 120 CsCl, 1 MgCl2, 11 EGTA, 30 KOH, 10 HEPES, 1 CaCl2, and 2 K2ATP; pH 7.2. […]

As for `CC(C)(CO)Cc1cc(C(C)(C)C)c(O)c(C(C)(C)C)c1` [CGP7930, 3-(3′,5′-Di-tert-butyl-4′-hydroxy) phenyl-2,2-dimethylpropanol], the “effect on GIRK-mediated inwardly-rectifying currents (I–V, −20 to −120 mV)” value (10 or 100 μM) was “inhibition”. In addition, the “threshold for whole-cell outward currents” value (GIRK cells without GABABRs, −60 mV, high K+) amounted to 0.3 µM. Also, the “effect on additional outward rectification (depolarising steps)” value (GIRK cells, I–V) is given as “inhibited”.

These data come from publication PMC10951960, “CGP7930 - An allosteric modulator of GABABRs, GABAARs and inwardly-rectifying potassium channels” (Neuropharmacology, 2023).
